Reference: ChEMBL document CHEMBL4152299, “Synthesis, crystal structure and antimicrobial potential of some fluorinated chalcone-1,2,3-triazole conjugates” (2018)
In brackets after ≈: the same amount, converted by molar mass.

Legend:
Type in all cases: functional
Candida albicans = experiment: Antifungal activity against Candida albicans MTCC 227 after 48 hrs by serial dilution method; settings: MTCC 227, 48 h
Bacillus subtilis = experiment: Antibacterial activity against Bacillus subtilis MTCC 441 after 24 hrs by serial dilution method; settings: MTCC 441, 24 h
Escherichia coli = experiment: Antibacterial activity against Escherichia coli MTCC 16521 after 24 hrs by serial dilution method; settings: MTCC 16521, 24 h
Pseudomonas aeruginosa = experiment: Antibacterial activity against Pseudomonas aeruginosa MTCC 424 after 24 hrs by serial dilution method; settings: MTCC 424, 24 h
Aspergillus niger = experiment: Antifungal activity against Aspergillus niger MTCC 8189 after 120 hrs by serial dilution method; settings: MTCC 8189, 120 h
[1] = test system: Staphylococcus epidermidis; experiment: Antibacterial activity against Staphylococcus epidermidis MTCC 6880 after 24 hrs by serial dilution method; settings: MTCC 6880, 24 h

SMILES | MIC (Candida albicans) | MIC (Bacillus subtilis) | MIC (Escherichia coli) | MIC (Pseudomonas aeruginosa) | MIC (Aspergillus niger) | MIC [1]
O=C(/C=C/c1c(OCc2cn(Cc3cccc(F)c3)nn2)ccc2ccccc12)c1ccc(Br)cc1 | 23.2 µM (≈ 12.6 µg/mL) | 11.6 µM (≈ 6.29 µg/mL) | 11.6 µM (≈ 6.29 µg/mL) | 23.2 µM (≈ 12.6 µg/mL) | 23.2 µM (≈ 12.6 µg/mL) | 23.2 µM (≈ 12.6 µg/mL)
O=C(/C=C/c1c(OCc2cn(Cc3cccc(F)c3)nn2)ccc2ccccc12)c1ccc([N+](=O)[O-])cc1 | 6.3 µM (≈ 3.2 µg/mL) | 12.6 µM (≈ 6.41 µg/mL) | 6.3 µM (≈ 3.2 µg/mL) | 6.3 µM (≈ 3.2 µg/mL) | 6.3 µM (≈ 3.2 µg/mL) | 6.3 µM (≈ 3.2 µg/mL)
COc1ccc(C(=O)/C=C/c2c(OCc3cn(Cc4ccccc4)nn3)ccc3ccccc23)cc1 | 52.6 µM (≈ 25 µg/mL) | 26.3 µM (≈ 12.5 µg/mL) | 26.3 µM (≈ 12.5 µg/mL) | 26.3 µM (≈ 12.5 µg/mL) | 52.6 µM (≈ 25 µg/mL) | 52.6 µM (≈ 25 µg/mL)
COc1ccc(C(=O)/C=C/c2c(OCc3cn(Cc4ccccc4F)nn3)ccc3ccccc23)cc1 | 6.3 µM (≈ 3.11 µg/mL) | 25.3 µM (≈ 12.5 µg/mL) | 6.3 µM (≈ 3.11 µg/mL) | 12.6 µM (≈ 6.22 µg/mL) | 25.3 µM (≈ 12.5 µg/mL) | 25.3 µM (≈ 12.5 µg/mL)
O=C(/C=C/c1c(OCc2cn(-c3ccc(F)cc3)nn2)ccc2ccccc12)c1ccc([N+](=O)[O-])cc1 | 12.6 µM (≈ 6.23 µg/mL) | 12.6 µM (≈ 6.23 µg/mL) | 25.3 µM (≈ 12.5 µg/mL) | 25.3 µM (≈ 12.5 µg/mL) | 12.6 µM (≈ 6.23 µg/mL) | 25.3 µM (≈ 12.5 µg/mL)
COc1ccc(C(=O)/C=C/c2c(OCc3cn(Cc4cccc(F)c4)nn3)ccc3ccccc23)cc1 | 12.6 µM (≈ 6.22 µg/mL) | 25.3 µM (≈ 12.5 µg/mL) | 12.6 µM (≈ 6.22 µg/mL) | 25.3 µM (≈ 12.5 µg/mL) | 12.6 µM (≈ 6.22 µg/mL) | 25.3 µM (≈ 12.5 µg/mL)
C#CCOc1ccc2ccccc2c1/C=C/C(=O)c1ccc([N+](=O)[O-])cc1 | 70 µM (≈ 25 µg/mL) | 140 µM (≈ 50 µg/mL) | 70 µM (≈ 25 µg/mL) | 70 µM (≈ 25 µg/mL) | 70 µM (≈ 25 µg/mL) | 70 µM (≈ 25 µg/mL)
O=C(/C=C/c1c(OCc2cn(-c3cccc(C(F)(F)F)c3)nn2)ccc2ccccc12)c1ccc(Br)cc1 | 21.7 µM (≈ 12.6 µg/mL) | 21.7 µM (≈ 12.6 µg/mL) | 10.8 µM (≈ 6.25 µg/mL) | 10.8 µM (≈ 6.25 µg/mL) | 10.8 µM (≈ 6.25 µg/mL) | 21.7 µM (≈ 12.6 µg/mL)
COc1ccc(C(=O)/C=C/c2c(OCc3cn(Cc4ccc(F)cc4)nn3)ccc3ccccc23)cc1 | 6.3 µM (≈ 3.11 µg/mL) | 25.3 µM (≈ 12.5 µg/mL) | 3.2 µM (≈ 1.58 µg/mL) | 25.3 µM (≈ 12.5 µg/mL) | 12.6 µM (≈ 6.22 µg/mL) | 25.3 µM (≈ 12.5 µg/mL)
O=C(/C=C/c1c(OCc2cn(Cc3ccc(F)cc3)nn2)ccc2ccccc12)c1ccc([N+](=O)[O-])cc1 | 3.2 µM (≈ 1.63 µg/mL) | 6.3 µM (≈ 3.2 µg/mL) | 3.2 µM (≈ 1.63 µg/mL) | 6.3 µM (≈ 3.2 µg/mL) | 3.2 µM (≈ 1.63 µg/mL) | 3.2 µM (≈ 1.63 µg/mL)
OC(Cn1cncn1)(Cn1cncn1)c1ccc(F)cc1F [FLUCONAZOLE] | 10.2 µM (≈ 3.12 µg/mL) |  |  |  | 5.1 µM (≈ 1.56 µg/mL) | 
O=C(/C=C/c1c(OCc2cn(Cc3ccc(F)cc3)nn2)ccc2ccccc12)c1ccc(Br)cc1 | 5.8 µM (≈ 3.15 µg/mL) | 5.8 µM (≈ 3.15 µg/mL) | 5.8 µM (≈ 3.15 µg/mL) | 11.6 µM (≈ 6.29 µg/mL) | 5.8 µM (≈ 3.15 µg/mL) | 5.8 µM (≈ 3.15 µg/mL)
O=C(/C=C/c1c(OCc2cn(-c3cccc(C(F)(F)F)c3)nn2)ccc2ccccc12)c1ccc([N+](=O)[O-])cc1 | 11.5 µM (≈ 6.26 µg/mL) | 45.9 µM (≈ 25 µg/mL) | 23 µM (≈ 12.5 µg/mL) | 23 µM (≈ 12.5 µg/mL) | 45.9 µM (≈ 25 µg/mL) | 23 µM (≈ 12.5 µg/mL)
O=C(O)c1cn(C2CC2)c2cc(N3CCNCC3)c(F)cc2c1=O [CIPROFLOXACIN] |  | 4.7 µM (≈ 1.56 µg/mL) | 4.7 µM (≈ 1.56 µg/mL) | 4.7 µM (≈ 1.56 µg/mL) |  | 4.7 µM (≈ 1.56 µg/mL)
O=C(/C=C/c1c(OCc2cn(Cc3ccccc3F)nn2)ccc2ccccc12)c1ccc([N+](=O)[O-])cc1 | 6.3 µM (≈ 3.2 µg/mL) | 6.3 µM (≈ 3.2 µg/mL) | 6.3 µM (≈ 3.2 µg/mL) | 24.8 µM (≈ 12.6 µg/mL) | 6.3 µM (≈ 3.2 µg/mL) | 6.3 µM (≈ 3.2 µg/mL)
O=C(/C=C/c1c(OCc2cn(Cc3ccccc3)nn2)ccc2ccccc12)c1ccc(Br)cc1 | 11.9 µM (≈ 6.24 µg/mL) | 23.9 µM (≈ 12.5 µg/mL) | 11.9 µM (≈ 6.24 µg/mL) | 11.9 µM (≈ 6.24 µg/mL) | 11.9 µM (≈ 6.24 µg/mL) | 11.9 µM (≈ 6.24 µg/mL)
O=C(/C=C/c1c(OCc2cn(Cc3ccccc3)nn2)ccc2ccccc12)c1ccc([N+](=O)[O-])cc1 | 12.8 µM (≈ 6.28 µg/mL) | 6.3 µM (≈ 3.09 µg/mL) | 12.8 µM (≈ 6.28 µg/mL) | 12.8 µM (≈ 6.28 µg/mL) | 6.3 µM (≈ 3.09 µg/mL) | 6.3 µM (≈ 3.09 µg/mL)
C#CCOc1ccc2ccccc2c1/C=C/C(=O)c1ccc(Br)cc1 | 63.7 µM (≈ 24.9 µg/mL) | 63.7 µM (≈ 24.9 µg/mL) | 63.7 µM (≈ 24.9 µg/mL) | 63.7 µM (≈ 24.9 µg/mL) | 127 µM (≈ 49.8 µg/mL) | 127 µM (≈ 49.8 µg/mL)
COc1ccc(C(=O)/C=C/c2c(OCc3cn(-c4ccc(F)cc4)nn3)ccc3ccccc23)cc1 | 13 µM (≈ 6.23 µg/mL) | 26.1 µM (≈ 12.5 µg/mL) | 13 µM (≈ 6.23 µg/mL) | 26.1 µM (≈ 12.5 µg/mL) | 52.2 µM (≈ 25 µg/mL) | 52.2 µM (≈ 25 µg/mL)
COc1ccc(C(=O)/C=C/c2c(OCc3cn(-c4cccc(C(F)(F)F)c4)nn3)ccc3ccccc23)cc1 | 11.8 µM (≈ 6.25 µg/mL) | 23.6 µM (≈ 12.5 µg/mL) | 11.8 µM (≈ 6.25 µg/mL) | 23.6 µM (≈ 12.5 µg/mL) | 11.8 µM (≈ 6.25 µg/mL) | 23.6 µM (≈ 12.5 µg/mL)
O=C(/C=C/c1c(OCc2cn(Cc3ccccc3F)nn2)ccc2ccccc12)c1ccc(Br)cc1 | 23.2 µM (≈ 12.6 µg/mL) | 11.6 µM (≈ 6.29 µg/mL) | 11.6 µM (≈ 6.29 µg/mL) | 23.2 µM (≈ 12.6 µg/mL) | 23.2 µM (≈ 12.6 µg/mL) | 11.6 µM (≈ 6.29 µg/mL)
O=C(/C=C/c1c(OCc2cn(-c3ccc(F)cc3)nn2)ccc2ccccc12)c1ccc(Br)cc1 | 47.4 µM (≈ 25 µg/mL) | 47.4 µM (≈ 25 µg/mL) | 23.7 µM (≈ 12.5 µg/mL) | 47.4 µM (≈ 25 µg/mL) | 23.7 µM (≈ 12.5 µg/mL) | 47.4 µM (≈ 25 µg/mL)
C#CCOc1ccc2ccccc2c1/C=C/C(=O)c1ccc(OC)cc1 | 73.1 µM (≈ 25 µg/mL) | 73.1 µM (≈ 25 µg/mL) | 73.1 µM (≈ 25 µg/mL) | 73.1 µM (≈ 25 µg/mL) | 73.1 µM (≈ 25 µg/mL) | 146 µM (≈ 50.1 µg/mL)
